This passage reports IC50 results from patent publication US11104674B2 (Hoffmann-La Roche Inc., priority 2016, dated 2021).

This assay has as its system HBsAg. Description: HBsAg assay (chemiluminescence immunoassay of secreted HBsAg). The settings on record: Hepatitis B virus, HepG2.2.15, HBsAg secretion, HepG2.2.15 cells, CLIA of culture supernatant. The format is cell-based, HBV. How it is done:
HepG2.2.15 cells (Acs et al. Proc Natl Acad Sci USA, 84, (1987), 4641-4), a constitutively HBV-expressing cell line were cultured in DMEM+Glutamax-I medium (Invitrogen, Carlsbad, Calif., USA), supplemented with 10% fetal bovine serum (Invitrogen) and G418 (Invitrogen) at a final concentration of 200 mg/L and maintained in 5% CO2 at 37° C.
HepG2.2.15 cells were seeded in duplicate into white, 96-well plates at 1.5×10^4 cells/well. The cells were treated with a three-fold serial dilution series of the compounds in DMSO. The final DMSO concentration in all wells was 1% and DMSO was used as no drug control.
The HBsAg chemiluminescence immunoassay (CLIA) kit (Autobio Diagnostics Co., Zhengzhou, China, Catalog number: CL0310-2) was used to measure the levels of secreted HBV antigens semi-quantitatively. For the detection 50 μL/well culture supernatant was used and HBsAg was quantified using HBsAg chemiluminescence immunoassay (CLIA) kit (Autobio Diagnostics Co., Zhengzhou, China, Catalog number: CL0310-2), 50 μL of the supernatant was transferred to the CLIA assay plate and 50 μL of enzyme conjugate reagent was added into each well. The plates were sealed and gently agitated for 1 hour at room temperature. The supernatant-enzyme-mixture was discarded and wells were washed 6 times with 300 μL of PBS.
The residual liquid was removed by plating the CLIA plate right side down on absorbent tissue paper. 25 μL of substrates A and B were added to each well. Luminance was measured using a luminometer (Mithras LB 940 Multimode Microplate Reader) after 10 minutes incubation. Dose-response curves were generated and the IC50 value was extrapolated by using the E-WorkBook Suite (ID Business Solutions Ltd., Guildford, UK). The IC50 was defined as the compound concentration (or conditioned media log dilution) at which HBsAg secretion was reduced by 50% compared to the no drug control.
The compounds according to formula I were tested for their capacity to inhibit HBsAg as described herein.

The term IC50 denotes the point on the concentration scale where inhibition reaches its midpoint. Lower therefore signals higher potency. In turn, `CC1c2cnc(-c3ncccn3)nc2CCN1c1cc(F)cc(N2CCOC(CC(=O)O)C2)n1` (stereo not drawn) [Example 29, 2-[4-[4-fluoro-6-(5-methyl-2-pyrimidin-2-yl-7,8-dihydro-5H-pyrido[4,3-d]pyrimidin-6-yl)-2-pyridyl]morpholin-2-yl]acetic acid] registered an IC50 of 722 nM.

Molecule `CC1c2cnc(-c3ncccn3)nc2CCN1c1cc(N2CCCC2CO)cc(F)n1` (stereo not drawn) [Example 30, [1-[2-fluoro-6-(5-methyl-2-pyrimidin-2-yl-7,8-dihydro-5H-pyrido[4,3-d]pyrimidin-6-yl)-4-pyridyl]pyrrolidin-2-yl]methanol] registered an IC50 of 7 nM. Next, `CC1c2cnc(-c3ncccn3)nc2CCN1c1cc(F)cc(N2CCCC2CO)n1` (stereo not drawn) [Example 31, [1-[4-fluoro-6-(5-methyl-2-pyrimidin-2-yl-7,8-dihydro-5H-pyrido[4,3-d]pyrimidin-6-yl)-2-pyridyl]pyrrolidin-2-yl]methanol]: 14 nM; `CC1c2cnc(-c3ncccn3)nc2CCN1c1cc(N2CCCC2C(=O)O)cc(F)n1` (stereo not drawn) [Example 32, 1-[2-fluoro-6-(5-methyl-2-pyrimidin-2-yl-7,8-dihydro-5H-pyrido[4,3-d]pyrimidin-6-yl)-4-pyridyl]pyrrolidine-2-carboxylic acid]: 391 nM. The molecule `CC1c2cnc(-c3ncccn3)nc2CCN1c1cc(F)cc(N2CCCC2C(=O)O)n1` (stereo not drawn) [Example 33, 1-[4-fluoro-6-(5-methyl-2-pyrimidin-2-yl-7,8-dihydro-5H-pyrido[4,3-d]pyrimidin-6-yl)-2-pyridyl]pyrrolidine-2-carboxylic acid] gave an IC50 of 93 nM. `COCC1CCCN1c1cc(F)nc(N2CCc3nc(-c4ncccn4)ncc3C2C)c1` (stereo not drawn) [Example 34, 6-[6-fluoro-4-[2-(methoxymethyl)pyrrolidin-1-yl]-2-pyridyl]-5-methyl-2-pyrimidin-2-yl-7,8-dihydro-5H-pyrido[4,3-d]pyrimidine]: the IC50 amounted to 54 nM. The same measure for `COCC1CCCN1c1cc(F)cc(N2CCc3nc(-c4ncccn4)ncc3C2C)n1` (stereo not drawn) [Example 35, 6-[4-fluoro-6-[2-(methoxymethyl)pyrrolidin-1-yl]-2-pyridyl]-5-methyl-2-pyrimidin-2-yl-7,8-dihydro-5H-pyrido[4,3-d]pyrimidine]: 33 nM; for `CC1c2cnc(-c3ncccn3)nc2CCN1c1cc(N2CCC(O)C2)cc(F)n1` (stereo not drawn) [Example 36, 1-[2-fluoro-6-(5-methyl-2-pyrimidin-2-yl-7,8-dihydro-5H-pyrido[4,3-d]pyrimidin-6-yl)-4-pyridyl]pyrrolidin-3-ol]: 12 nM. Next, `CC1c2cnc(-c3ncccn3)nc2CCN1c1cc(F)cc(N2CCC(O)C2)n1` (stereo not drawn) [Example 37, 1-[4-fluoro-6-(5-methyl-2-pyrimidin-2-yl-7,8-dihydro-5H-pyrido[4,3-d]pyrimidin-6-yl)-2-pyridyl]pyrrolidin-3-ol]: 11 nM; `CC1c2cnc(-c3ncccn3)nc2CCN1c1cc(N2CCC(C(=O)O)C2)cc(F)n1` (stereo not drawn) [Example 38, 1-[2-fluoro-6-(5-methyl-2-pyrimidin-2-yl-7,8-dihydro-5H-pyrido[4,3-d]pyrimidin-6-yl)-4-pyridyl]pyrrolidine-3-carboxylic acid]: 1010 nM; `CC1c2cnc(-c3ncccn3)nc2CCN1c1cc(F)cc(N2CCC(C(=O)O)C2)n1` (stereo not drawn) [Example 39, 1-[4-fluoro-6-(5-methyl-2-pyrimidin-2-yl-7,8-dihydro-5H-pyrido[4,3-d]pyrimidin-6-yl)-2-pyridyl]pyrrolidine-3-carboxylic acid]: 108 nM.

In turn, `CC1COCCN1c1cc(F)nc(N2CCc3nc(-c4ncccn4)ncc3C2C)c1` (stereo not drawn) [Example 40, 4-[2-fluoro-6-(5-methyl-2-pyrimidin-2-yl-7,8-dihydro-5H-pyrido[4,3-d]pyrimidin-6-yl)-4-pyridyl]-3-methyl-morpholine] had an IC50 of 10 nM.

The molecule `CC1COCCN1c1cc(F)cc(N2CCc3nc(-c4ncccn4)ncc3C2C)n1` (stereo not drawn) [Example 41, 4-[4-fluoro-6-(5-methyl-2-pyrimidin-2-yl-7,8-dihydro-5H-pyrido[4,3-d]pyrimidin-6-yl)-2-pyridyl]-3-methyl-morpholine] displayed an IC50 of 17 nM. The same measure for `CC1c2cnc(-c3ncccn3)nc2CCN1c1cc(N2CCCC2C(N)=O)cc(F)n1` (stereo not drawn) [Example 42, 1-[2-fluoro-6-(5-methyl-2-pyrimidin-2-yl-7,8-dihydro-5H-pyrido[4,3-d]pyrimidin-6-yl)-4-pyridyl]pyrrolidine-2-carboxamide]: 319 nM; for `CC1c2cnc(-c3ncccn3)nc2CCN1c1cc(F)cc(N2CCCC2C(N)=O)n1` (stereo not drawn) [Example 43, 1-[4-fluoro-6-(5-methyl-2-pyrimidin-2-yl-7,8-dihydro-5H-pyrido[4,3-d]pyrimidin-6-yl)-2-pyridyl]pyrrolidine-2-carboxamide]: 134 nM. Next, `CC1c2cnc(-c3ncccn3)nc2CCN1c1cc(N2CCC(C(N)=O)C2)cc(F)n1` (stereo not drawn) [Example 44, 1-[2-fluoro-6-(5-methyl-2-pyrimidin-2-yl-7,8-dihydro-5H-pyrido[4,3-d]pyrimidin-6-yl)-4-pyridyl]pyrrolidine-3-carboxamide]: 54 nM; `CC1c2cnc(-c3ncccn3)nc2CCN1c1cc(F)cc(N2CCC(C(N)=O)C2)n1` (stereo not drawn) [Example 45, 1-[4-fluoro-6-(5-methyl-2-pyrimidin-2-yl-7,8-dihydro-5H-pyrido[4,3-d]pyrimidin-6-yl)-2-pyridyl]pyrrolidine-3-carboxamide]: 18 nM.

Consider `CC1c2cnc(-c3ncccn3)nc2CCN1c1cc(N2CCOC(C(N)=O)C2)cc(F)n1` (stereo not drawn) [Example 46, 4-[2-Fluoro-6-(5-methyl-2-pyrimidin-2-yl-7,8-dihydro-5H-pyrido[4,3-d]pyrimidin-6-yl)-4-pyridyl]morpholine-2-carboxamide], for which the IC50 was found to be 36 nM. The molecule `CC1c2cnc(-c3ncccn3)nc2CCN1c1cc(F)cc(N2CCOC(C(N)=O)C2)n1` (stereo not drawn) [Example 47, 4-[4-fluoro-6-(5-methyl-2-pyrimidin-2-yl-7,8-dihydro-5H-pyrido[4,3-d]pyrimidin-6-yl)-2-pyridyl]morpholine-2-carboxamide] registered an IC50 of 33 nM. Molecule `CC1c2cnc(-c3ncccn3)nc2CCN1c1cc(NC2CCOCC2)cc(F)n1` (stereo not drawn) [Example 48, 2-fluoro-6-(5-methyl-2-pyrimidin-2-yl-7,8-dihydro-5H-pyrido[4,3-d]pyrimidin-6-yl)-N-tetrahydropyran-4-yl-pyridin-4-amine] yielded an IC50 of 55 nM. Next, `CC1c2cnc(-c3ncccn3)nc2CCN1c1cc(F)cc(NC2CCOCC2)n1` (stereo not drawn) [Example 49, 4-fluoro-6-(5-methyl-2-pyrimidin-2-yl-7,8-dihydro-5H-pyrido[4,3-d]pyrimidin-6-yl)-N-tetrahydropyran-4-yl-pyridin-2-amine]: 56 nM.

Take `CC1c2cnc(-c3ncccn3)nc2CCN1c1cc(N2CCNC(C(=O)O)C2)cc(F)n1` (stereo not drawn) [Example 50, 4-[2-Fluoro-6-(5-methyl-2-pyrimidin-2-yl-7,8-dihydro-5H-pyrido[4,3-d]pyrimidin-6-yl)-4-pyridyl]piperazine-2-carboxylic acid]: the midpoint of inhibition, the IC50, lay at 1940 nM.

In turn, `CC1c2cnc(-c3ncccn3)nc2CCN1c1cc(F)cc(N2CCC(C(=O)O)CC2)n1` (stereo not drawn) [Example 51, 1-[4-fluoro-6-(5-methyl-2-pyrimidin-2-yl-7,8-dihydro-5H-pyrido[4,3-d]pyrimidin-6-yl)-2-pyridyl]piperidine-4-carboxylic acid] yielded an IC50 of 346 nM.

In the case of `CC1c2cnc(-c3ncccn3)nc2CCN1c1cc(N2CCC(C(=O)O)CC2)cc(F)n1` (stereo not drawn) [Example 52, 1-[2-fluoro-6-(5-methyl-2-pyrimidin-2-yl-7,8-dihydro-5H-pyrido[4,3-d]pyrimidin-6-yl)-4-pyridyl]piperidine-4-carboxylic acid], 1040 nM corresponded to half-maximal inhibition (IC50). Next, `CC1c2cnc(-c3ncccn3)nc2CCN1c1cc(F)cc(N2CC(C(=O)O)C2)n1` (stereo not drawn) [Example 53, 1-[4-fluoro-6-(5-methyl-2-pyrimidin-2-yl-7,8-dihydro-5H-pyrido[4,3-d]pyrimidin-6-yl)-2-pyridyl]azetidine-3-carboxylic acid]: 4710 nM; `CC1c2cnc(-c3ncccn3)nc2CCN1c1cc(N2CC(C(=O)O)C2)cc(F)n1` (stereo not drawn) [Example 54, 1-[2-fluoro-6-(5-methyl-2-pyrimidin-2-yl-7,8-dihydro-5H-pyrido[4,3-d]pyrimidin-6-yl)-4-pyridyl]azetidine-3-carboxylic acid]: 6340 nM; `CC1c2cnc(-c3ncccn3)nc2CCN1c1cc(F)cc(N2CCC(C(N)=O)CC2)n1` (stereo not drawn) [Example 55, 1-[4-fluoro-6-(5-methyl-2-pyrimidin-2-yl-7,8-dihydro-5H-pyrido[4,3-d]pyrimidin-6-yl)-2-pyridyl]piperidine-4-carboxamide]: 72 nM.
